Results as given in patent US10894036B2, “Use of marizomib for the treatment of central nervous system (CNS) cancers” (Celgene International II Sàrl, priority 2016, dated 2021).
Several values for one entry are separate records, joined by “and”; a condition that tells them apart may be missing. Equal values may be shown once. Entries after “also recorded” stand apart in the source; their conditions may differ.

Key:
[1] = test system: chymotrypsin-like (CT-L) proteasome activity; test: Proteasome inhibition in packed whole blood: CT-L; format: in vivo, human
Text: The drugs were infused on 28-Day Cycles.
Change in proteasome activities in packed whole blood (PWB) lysates and peripheral blood mononuclear cell (PBMC) lysates, comparing pre-drug and post drug levels on Days 1, 8, and 15 of Cycle 1; Days 1 and 15 of each Cycle thereafter; and at the End-of Treatment Visit.
The laboratory correlates include assessment of the percentage inhibition of proteasome function (evaluated by measurement of CT-L, T-L and C-L activity in blood isolates such as whole blood and PBMC lysates.
PD analysis will include change in proteasome activities (whole blood lysates and PBMC lysates) by comparing pre-drug and post drug levels on Days 1, 8, and 15 (i.e., for each dose) of Cycle 1 and Days 1 and 15 (i.e., for the first and last doses) of each cycle thereafter.

CNS-MM = test: Compassionate use of marizomib in CNS-myeloma patients: response (IMWG, CSF, MRI, neurological); format: in vivo, human
Procedure: (§1) This example sets forth seven case studies in which CNS-MM (i.e., multiple myeloma with CNS involvement) was treated using marizomib alone or in combination with other agents.
Daratumumab (16 mg/kg weekly×2 months) was added with continued marizomib.
Marizomib was given on compassionate use protocol (see above) at 0.7 mg/m^2 as a 10 min IV infusion on days 1, 8 and 15 along with dexamethasone on a 28 day Cycle.
In July 2016, marizomib was given on compassionate use protocol at 0.8 mg/m^2 as a 10 min IV infusion on days 1, 8 and 15 along with dexamethasone on a 28 day Cycle. Pomalidomide was also given at 4 mg daily on days 1 through days 21.
In August 2016, marizomib was given on compassionate use protocol at 0.7 mg/m^2 as a 10 min IV infusion on days 1, 8 and 15 along with dexamethasone on a 28 day Cycle. Pomalidomide was dosed at 4 mg daily on days 1 through days 21.
The patient was treated with marizomib, oral pomalidomide, and oral dexamethasone.
All patients had systemic disease with CNS involvement.

[2] = Compassionate use of marizomib in CNS-myeloma patients: safety; format: in vivo, human
Procedure: as §1
As set forth herein, 7 patients were treated under single patient compassionate use protocols with MRZ for CNS-myeloma. Marizomib was well-tolerated. […] One patient has been on the study for 13 months with complete resolution of both […].

clinical = conditions: human
Procedure: Blood samples will be taken for peak and trough measurements, pre-dose and immediately prior to (end of infusion) EOI, on Cycle 1 Day 1. On Cycle 1 Day 15 full PK sampling will be done: pre-dose, immediately prior to EOI and then 2, 5, 15, 30, 45, 60, 90 and 120 minutes post infusion. The following PK parameters will be estimated by non-compartmental analysis:
Non-compartmental analyses will be performed. […] Blood concentrations and computed PK parameters for MRZ will be listed and summarized by cohort (mean, geometric mean, standard deviation, coefficient of variation, minimum, maximum and number of observations).
For MRZ samples will be obtained before treatment and just prior to end of infusion on Cycle 1 Day 1. On Cycle 1 Day 15, MRZ blood samples will be obtained before treatment, just prior to end of infusion, and 2, 5, 15, 30, 45, 60, 90, and 120 minutes after the infusion. Every effort should be made to collect samples at the prescribed times, but deviations up to 10% of the time point are allowed. […] After blood collection, neutralizing solution must be added.

20S Proteasome = test: 20S proteasome activity (% inhibition) in rodent brain; format: in vivo, mouse
D54MG cells = test: Intracranial GBM xenograft survival; format: in vivo; conditions: athymic BALB/c nu/nu mice, MRZ IV twice weekly
Procedure: 1×10^5 D54MG cells implanted into right frontal lobes of athymic BALB/c nu/nu mice. MRZ administered IV twice weekly.

[3] = 7 CNS-MM patients, listed as Marizomib
[4] = whole blood, intravenous, 0.7 mg/m2
[5] = whole blood, intravenous, 0.8 mg/m2
[6] = tumor-bearing mouse, IV, individual mice 1 and 2
[7] = tumor-bearing mouse, IV, individual mice 1 and 2, NE = No Effect, listed as MRZ
[8] = tumor-bearing mouse, IV, individual mice 1 and 2, listed as MRZ

**Q.** Which results are given for `C[C@@]12OC(=O)[C@]1([C@@H](O)[C@@H]1C=CCCC1)NC(=O)[C@@H]2CCCl` [marizomib]?
**A.** % CT-L inhibition ([1]; PWB post-MRZ infusion (peak effect), 0.7 mg/m^2 (17 May 2016)): 100 ± 0 (3) %; % CT-L inhibition ([1]; PWB post-Marizomib infusion (peak effect), 0.7 mg/m^2): 100 ± 0 (3) %; % CT-L inhibition ([1]; PWB post-Marizomib infusion (peak effect), 0.8 mg/m^2): 100 ± 0 (3) %; sustained inhibition of the CT-L domain, pre-infusion ([1]; packed whole blood, up to two weeks after marizomib dosing): 60-80%; complete responses (CNS-MM; 7 CNS-MM patients): two; partial responses (CNS-MM; 7 CNS-MM patients): 3; patients with at least a partial response (overall response rate) (CNS-MM; 7 CNS-MM patients): five of seven; patients with survival greater than four months (CNS-MM; 7 CNS-MM patients): four of seven; patients with at least a partial response (overall response rate) (CNS-MM; 7 CNS-MM patients, listed as MRZ): Five of 7; complete responses (CNS-MM; [3]): 2; patients with at least a partial response (overall response rate) (CNS-MM; [3]): 5/7; Neurological Assessment (CNS-MM; Case 1): Reduction of CSF plasma cells; reduction of CSF plasmacytosis (CNS-MM; Case 1): 99%; Reduction of CSF plasma cells (CNS-MM; Case 1, C2D1): (90% C2D1); Neurological Assessment (CNS-MM; Case 2): sustained complete resolution of CSF plasmacytosis; also recorded: No CSF plasma cells detected; also recorded: Stable remission by MRI; Response (CNS-MM; Case 2, ongoing C13): CR by serology; stable remission; Neurological Assessment (CNS-MM; Case 3): undetectable CSF plasmacytosis since C3D1; also recorded: No evidence of FDG-avid lesions; IMWG Assessment Systemic Disease (CNS-MM; Case 3: MRZ 0.8 mg/m^2 + POM 4 mg + DEX 20 mg): ongoing complete response; Response (CNS-MM; Case 3, ongoing C8): CR - no evidence of active disease:; Neurological Assessment (CNS-MM; Case 4): Transient improvement through; Response (CNS-MM; Case 4, discontinued on C3): Best response PR with PD after C3; Response (CNS-MM; Case 5, discontinued C1): Pleural effusion following C1D1; Neurological Assessment (CNS-MM; Case 6): resolution of CNS disease; also recorded: Complete resolution of central; reduction in systemic paraprotein (CNS-MM; Case 6): 77%; Paraprotein after decrease (CNS-MM; Case 6, from 18 g/L): 18 to 4 g/L; IMWG Assessment Systemic Disease (CNS-MM; Case 7: MRZ 0.7 mg/m^2 + LEN 25 mg + DEX 10 mg): PD (increase in tumor of ≥25% from lowest response value); IMWG Assessment Systemic Disease (CNS-MM; Case 7: MRZ 0.7 mg/m^2 + LEN 25 mg + DEX 10 mg, listed as MRZ): progressive disease; CNS adverse events ([2]; 7 CNS-MM patients): no CNS adverse events; tolerability ([2]; 7 CNS-MM patients): well-tolerated; CNS adverse events [2, 3]: No CNS-adverse events; Safety ([2]; Case 1): No adverse events were reported; Safety ([2]; Case 1, listed as MRZ): MRZ was well tolerated; Safety ([2]; Case 2): No adverse events or serious adverse events were observed; Safety ([2]; Case 2, listed as MRZ): No concerning AEs; Safety ([2]; Case 3): grade 1 adverse event; Safety ([2]; Case 3, listed as MRZ): Grade 1 shortness of; Safety ([2]; Case 4): well-tolerated with no adverse events reported; Safety ([2]; Case 4, listed as MRZ): Tolerated treatment; Safety ([2]; Case 5): serious adverse event; Safety ([2]; Case 5, listed as MRZ): AE due to PD,; Safety ([2]; Case 6): grade 2 adverse event; Safety ([2]; Case 6, listed as MRZ): Overall, no safety; Safety ([2]; Case 7, listed as MRZ): No adverse events or safety concerns were noted; also recorded: No AEs or safety; Cmax (clinical; blood, iv, 0.7 mg/m2): 64.9 ± 1.73 ng/mL; Cmax (clinical; blood, iv, 0.8 mg/m2): 26.5 ± 7.92 ng/mL; Tmax (clinical; [4]): 11.3 min; half-life (clinical; [4]): 32 min; AUC(0-t) (clinical; [5]): 4.05 ng·h/mL; Cmax (clinical; [5]): 26 ± 8 ng/mL; Tmax (clinical; [5]): 0 min; half-life (clinical; [5]): 7.6 ± 0.9 min; Tmax (clinical; whole blood, intravenous, […]2): 4 min; half-life (clinical; whole blood, intravenous, […]2): 8.8 ± 0.8 min; AUC(0-t) (clinical; whole blood, iv, 0.7 mg/m2): 3.22 ng·h/mL; Tmax (clinical; whole blood, iv, 0.7 mg/m2): 21.3 min; Vd (clinical; whole blood, iv, 0.7 mg/m2): 48.3 ± 16.1 L; half-life (clinical; whole blood, iv, 0.7 mg/m2): 16 ± 8.08 min; AUC(0-t) (clinical; whole blood, iv, 0.8 mg/m2): 6.53 ng·h/mL; Tmax (clinical; whole blood, iv, 0.8 mg/m2): 8 min; half-life (clinical; whole blood, iv, 0.8 mg/m2): 7.27 ± 0.423 min; Tmax (clinical; whole blood, iv, […]2): 15.5 min; Vd (clinical; whole blood, iv, […]2): 54.4 ± 10.6 L; half-life (clinical; whole blood, iv, […]2): 8.2 ± 0.8 min; proteasome activity in brain (20S Proteasome; mouse): inhibits proteasome activity; CT-L activity in brain (20S Proteasome; tumor-bearing mouse): inhibits CT-L activity in brain; 20S Proteasome Activity (% Inhibition), Blood, Peak (2 hr) (20S Proteasome; [6]): 99%; 20S Proteasome Activity (% Inhibition), Blood, Trough (20S Proteasome; [6]): 87%; 20S Proteasome Activity (% Inhibition), Brain, Peak (2 hr) (20S Proteasome; [7]): 94% and 98%; 20S Proteasome Activity (% Inhibition), Brain, Trough (20S Proteasome; [7]): 52% and 41%; 20S Proteasome Activity (% Inhibition), Tumor, Peak (2 hr) (20S Proteasome; [8]): 56% and 77%; 20S Proteasome Activity (% Inhibition), Tumor, Trough (20S Proteasome; [8]): 15% and 0%; activity in intracranial GBM xenograft (D54MG cells): Active
